We go through nine molecules from patent publication US10494357B2, “Tocotrienol derivatives, pharmaceutical composition and method of use in 5-lipoxygenase related diseases” (UNIVERSITÉ D'ANGERS, priority 2015, dated 2019).

SMILES strings stand for the structures. Where two headings read alike, the source gives them in different places.

The test system of series [1] is 5-LO product formation in neutrophils. Kind of series: 5-LO product formation in neutrophils. Format: cell-based, human. The note with it: for IC50: Homo sapiens, Neutrophil; for 5-LO product formation in neutrophils (A23187) residual activities [% vehicle control]: A23187 alone; for 5-LO product formation in neutrophils (AA + A23187) residual activities [% vehicle control]: A23187 plus 20 μM AA. Here is the method:
Freshly isolated neutrophils (1×10^7/ml) were pre-incubated with the test compounds for 15 min at 37° C. Then, 5-LO product formation was started by addition of 2.5 μM Ca^2+-ionophore A23187 alone or A23187 plus 20 μM arachidonic acid (AA). The reaction was stopped after 10 min at 37° C. with 1 ml of methanol. Major 5-LO metabolites (LTB4 and its all-trans isomers and 5-H(P)ETE) were extracted and analyzed by HPLC as described (Werz: Blood 2002, 99, 1044-1052). Cysteinyl-LTs C4, D4 and E4 and oxidation products of LTB4 were not determined.

The subject of series [2] is HepaRG® cells. Put plainly: Hepatotoxicity assay. Format: cell-based. The note with it: 48 h. The procedure:
HepaRG® cells were seeded at a density of 2.6×10^4 cells/cm^2 in Williams' E medium supplemented with 2 mM glutamax, 100 U/mL penicillin, 100 μg/mL streptomycin, 10% Hyclone fetal calf serum, 5 μg/mL insulin, and […] hydrocortisone hemisuccinate. At confluence, after 2 weeks, HepaRG® cells were shifted to the same medium supplemented with 1.7% dimethyl sulfoxide for 2 additional weeks in order to obtain confluent differentiated cultures containing equal proportions of hepatocyte-like and progenitors/primitive biliary-like cell. These differentiated hepatic cell cultures were used for analytical assays.
Then, the cells were exposed to a tocotrienol derivative in Williams' E medium supplemented with 2% Hyclone fetal calf serum containing 0.2% dimethyl sulfoxide during 48 h.

The target of series [3] is T1, human recombinant 5-LO (Homo sapiens, UniProt P09917).
T1 construct: made in house; inferred to be the same preparation
T1 sequence (P09917 1-674): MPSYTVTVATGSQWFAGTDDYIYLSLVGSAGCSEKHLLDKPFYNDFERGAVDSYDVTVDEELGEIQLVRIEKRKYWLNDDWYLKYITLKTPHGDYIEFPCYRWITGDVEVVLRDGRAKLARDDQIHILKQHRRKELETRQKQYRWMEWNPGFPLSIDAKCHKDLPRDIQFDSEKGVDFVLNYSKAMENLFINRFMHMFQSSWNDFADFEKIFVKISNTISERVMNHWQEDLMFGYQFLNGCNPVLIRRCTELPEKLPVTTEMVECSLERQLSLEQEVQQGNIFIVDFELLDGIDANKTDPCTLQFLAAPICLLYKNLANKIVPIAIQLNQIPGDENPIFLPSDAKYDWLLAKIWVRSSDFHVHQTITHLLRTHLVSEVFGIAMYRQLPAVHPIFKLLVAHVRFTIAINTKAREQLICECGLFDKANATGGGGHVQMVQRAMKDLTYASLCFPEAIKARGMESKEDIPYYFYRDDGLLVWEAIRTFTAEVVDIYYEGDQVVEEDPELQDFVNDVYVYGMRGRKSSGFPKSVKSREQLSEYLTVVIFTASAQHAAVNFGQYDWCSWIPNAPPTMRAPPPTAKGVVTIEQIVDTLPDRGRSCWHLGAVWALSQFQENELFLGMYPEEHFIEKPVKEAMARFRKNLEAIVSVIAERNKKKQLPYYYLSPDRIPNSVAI
Kind of series: Human recombinant 5-LO activity. In kind it is biochemical. Here is the method: Methods for measuring the 5-LO activity are well-known from the skilled artisan. An example of such a method is disclosed in the Examples.
Human recombinant 5-LO was pre-incubated with the test compounds for 10 min at 4° C. and pre-warmed for 30 s at 37° C. 5-LO product formation was initiated by addition of 2 mM CaCl2 and 20 μM arachidonic acid. After 10 min at 37° C., the reaction was terminated by addition of 1 ml ice-cold methanol.

Series [4] relates to LTC4 formation. Put plainly: Zymosan-induced peritonitis in mice, LTC4 level in peritoneal exudate. In kind it is in vivo. The note with it: 10 mg/kg i.p. 30 min before zymosan, measured 30 min after zymosan injection. Here is the method: Zymosan was used to trigger peritonitis in mice pre-treated with a-amplexichromanol or Zileuton, each at a dose of 10 mg/kg. The resulting LTC4 levels in the peritoneal exudate were measured 30 min after zymosan injection.
α-amplexichromanol (10 mg/kg) or vehicle (0.5 ml of 0.9% saline solution containing 2% DMSO) were given i.p. 30 min before zymosan i.p. injection (0.5 ml of a 2 mg/ml suspension in 0.9% w/v saline). Mice were killed by inhalation of CO2 at the indicated time points followed by a peritoneal lavage with 3 ml of cold PBS pH 7.4. Exudates were collected. After centrifugation of the exudates (18,000× g, 5 min, 4° C.), the amounts of cysteinyl-LTs were analyzed in the supernatant by enzyme immunoassay (Enzo Life Sciences GmbH, Lörrach, Germany) according to manufacturer's instructions.

The subject of series [5] is IL-8. Put plainly: IL-8 release from LPS-stimulated monocytes (ELISA). In kind it is cell-based. The note with it: LPS 10 ng/ml. Here is the method:
(§1) First, different concentrations of δ-amplexichromanol (0.1; 1 and 10 μM) were added to the stimulated monocytes.
(§2) Secondly, monocytes were stimulated with lipopolysaccharide (LPS, 10 ng/ml for 4-18 h) for inducing the formation of pro-inflammatory cytokines.
(§3) Finally, the resulting levels of proinflammatory cytokines were measured by ELISA. Dexamethasone (1 μM) was used as control.
A general note: ELISA stands for enzyme-linked immunosorbent assay.

For series [6], the system named is IL-1β. Put plainly: IL-1β release from LPS-stimulated monocytes (ELISA). The note with it: LPS 10 ng/ml. In kind it is cell-based. Here is the method: as §1, §2, §3
The subject of series [7] is TNF-α. Kind of series: TNF-α release from LPS-stimulated monocytes (ELISA). The note with it: LPS 10 ng/ml. In kind it is cell-based. Here is the method:
as §1, §2, §3

Where [8] appears, read: human recombinant 5-LO, read-out: IC50 (nM) 5-LO activity.

By IC50 is commonly meant the concentration that gives 50% inhibition. Consider `CC(=O)N(O)C/C=C/c1cccc(Oc2ccccc2)c1` [BWA4C, N-RE)-3-(3-phenoxyphenye-prop-2-enyllacetohydroxamic acid, reference compound], for which the IC50 in series [1] was found to be 41 ± 1 nM.

With `C/C(=C\CC/C(C)=C/CCC1(C)CCc2c(C)c(O)c(C)c(C)c2O1)CCC=C(CO)CO` (centres unmarked) [Compound 1, 2-((4E,8E)-11-(6-hydroxy-2,5,7,8-tetramethylchroman-2-yl)-4,8-dimethylundeca-4,8-dien-1-ylidene)propane-1,3-diol], the Number of cells came out at 4389 in series [2] (0.1 μM), 4705 in series [2] (1 μM) and 4702 in series [2] (10 μM). Besides, the IC50 in series [3] (setting [8]) was 106 ± 29 nM; in series [1], 19 ± 4 nM. The “LTC4 level in the peritoneal exudate” value in series [4] is reported as “the same than the LTC4 level obtained by Zileuton”.

For the molecule `C/C(=C\CC/C(C)=C/CCC1(C)CCc2c(C)c(O)cc(C)c2O1)CCC=C(CO)CO` (centres unmarked) [Compound 9, 2-((4E,8E)-11-(6-hydroxy-2,5,8-trimethylchroman-2-yl)-4,8-dimethylundeca-4,8-dien-1-ylidene)propane-1,3-diol], the values for the Number of cells in series [2] (0.1 μM), in series [2] (1 μM) and in series [2] (10 μM) were 4429, 4436 and 4785, respectively. The values for the IC50 in series [3] and in series [1] were 91 ± 15 nM and 114 ± 35 nM, respectively.

Consider `C/C(=C/CC/C(C)=C/CC/C(C)=C/CCC1(C)CCc2cc(O)cc(C)c2O1)CO` (centres unmarked) [Compound 23, 2-((3E,7E,11Z)-13-hydroxy-4,8,12-trimethyltrideca-3,7,11-trien-1-yl)-2,8-dimethylchroman-6-ol], for which the IC50 was 137 ± 29 nM in series [3] (setting [8]) and 220 ± 40 nM in series [1].

Regarding `C/C(=C\CC/C(C)=C/CCC1(C)CCc2cc(O)cc(C)c2O1)CCC=C(CO)CO` (centres unmarked) [Compound 26, 2-((4E,8E)-11-(6-hydroxy-2,8-dimethylchroman-2-yl)-4,8-dimethylundeca-4,8-dien-1-ylidene)propane-1,3-diol], the “IL-8 release (%)” value in series [5] (1 μM) is “n.i.^a”. Further, the “IL-1β release (%)” value in series [6] (1 μM) came out at 86 ± 11%. In addition, the IC50 was 148 ± 35 nM in series [3] (setting [8]) and 419 ± 33 nM in series [1]. The “5-LO product formation in neutrophils (A23187) residual activities [% vehicle control]” value in series [1] (0.1 μM) is reported as 17.4 ± 8.8 % vehicle control; in series [1] (1 μM) it was 10.0 ± 2.8 % vehicle control; in series [1] (10 μM), 0.0 ± 0.0 % vehicle control. In addition, the results for the “5-LO product formation in neutrophils (AA + A23187) residual activities [% vehicle control]” value in series [1] (0.1 μM), in series [1] (1 μM) and in series [1] (10 μM) were “n.i.^a”, 15.4 ± 4.4 % vehicle control and 0.6 ± 0.6 % vehicle control, respectively. Moreover, in series [7] (1 μM), the “TNF-α release (%)” value is reported as “n.i.^a”.

For the molecule `C/C(=C/CC/C(C)=C/CC/C(C)=C/CCC1(C)CCc2cc(O)c(C)c(C)c2O1)CO` (centres unmarked) [Compound 33, 2-((3E,7E,11Z)-13-hydroxy-4,8,12-trimethyltrideca-3,7,11-trien-1-yl)-2,7,8-trimethylchroman-6-ol], the figures for the Number of cells in series [2] (0.1 μM), in series [2] (1 μM) and in series [2] (10 μM) were 4363, 4412 and 4610, respectively. Also, the IC50 in series [3] (setting [8]) is 120 ± 29 nM; in series [1], 140 ± 21 nM.

As for `C/C(=C\CC/C(C)=C/CCC1(C)CCc2cc(O)c(C)c(C)c2O1)CCC=C(CO)CO` (centres unmarked) [Compound 34, 2-((4E,8E)-11-(6-hydroxy-2,7,8-trimethylchroman-2-yl)-4,8-dimethylundeca-4,8-dien-1-ylidene)propane-1,3-diol], the figures for the Number of cells in series [2] (0.1 μM), in series [2] (1 μM) and in series [2] (10 μM) were 4212, 4562 and 4677, respectively. Besides, the IC50 in series [3] (setting [8]) turned out to be 110 nM; in series [1], 67 ± 54 nM.

In the case of `CC(c1cc2ccccc2s1)N(O)C(N)=O` (centres unmarked) [Zileuton, reference compound], the Number of cells in series [2] (0.1 μM) was 4313; in series [2] (1 μM), 4244; in series [2] (10 μM) it was 4554.

For the molecule `C[C@@H]1C[C@H]2[C@@H]3CCC4=CC(=O)C=C[C@]4(C)[C@@]3(F)[C@@H](O)C[C@]2(C)[C@@]1(O)C(=O)CO` [dexamethasone], the “IL-8 release (%)” value in series [5] (1 μM) turned out to be 83.5 ± 3.2%; in series [5] (10 μM) it was 30.6 ± 1.5%. Besides, the “IL-1β release (%)” value is 68.7 ± 2.4% in series [6] (1 μM) and 49.9 ± 4.8% in series [6] (10 μM). Moreover, the figures for the “TNF-α release (%)” value in series [7] (1 μM) and in series [7] (10 μM) were 42.2 ± 0.8% and 13.3 ± 2.6%, respectively.
